The values that follow are results of earlier work, collected in patent US20260216277A1, “TOPICAL COMPOSITIONS AND METHODS FOR TREATING ALOPECIA” (priority 2023, published 2026).

The data set has as its system radiation-induced alopecia. Conditions: whole brain radiotherapy.

Structures are written as SMILES.

As to `CC1(C)CC(O)CC(C)(C)N1[O]` [Tempol, 4-hydroxy-2,2,6,6-tetramethylpiperidine-1-oxyl], the “Safety and tolerability of topical application to the scalp before radiation” value was “relatively safe and well tolerated”.
